Test results published in US20050129618A1, “Drugs for ameliorating itch, rough skin or hypersensitive skin or for whitening via inhibition of the production and release of stem cell factor” (Shiseido Co., ltd., priority 2001, published 2005).

System: SCF expression on keratinocyte membranes
Test: Accelerated SCF expression on keratinocyte membranes by different stimulations
Format: cell-based, human
Settings: chemical stimulation, culturing for 24 hours; FIG. 4
Experimental: After plating 1.5 million keratinocytes on a 10 cm plate and culturing for 72 hours, the cells were stimulated by one of the following: (1) exchanging the medium with PBS(−), irradiating the culture with UVB at 20 mJ/cm^2 and then immediately exchanging the PBS(−) with medium, (2) adding forskolin, or (3) adding theophyllin. After culturing for 24 hours, the cells were collected and then dispersed in 200 μl of 50 mM phosphate buffer solution (pH 7.8)+protease inhibitor solution, and the cells were then disrupted with an ultrasonic disrupter for five 30-second disruption cycles at 4° C. After centrifugation at 10,000 g for 20 minutes at 4° C., the supernatant was further centrifuged at 100,000 g for 60 minutes at 4° C. The obtained pellet was dissolved in 100 μl of 25 mM phosphate buffer solution (pH 6.8)+0.1% Triton-X100 solution and a membrane fraction protein extract was obtained. The protein content of the solution was measured by an established method, and then the SCF amount was assayed to obtain an SCF/protein value.

With Cn1c(=O)c2[nH]cnc2n(C)c1=O [theophyllin] the “expression of SCF in the cells or on the cell membranes (SCF/protein value of membrane fraction)” value was “accelerated expression of SCF”.
